Experimental data from patent publication US11905504B2, “Body cube and process for culturing tissue” (Government of the United States of America, as represented …, priority 2020, dated 2024).
Entries after “also recorded” stand apart in the source; their conditions may differ.

How the values were obtained:
[1] = test system: HepG2/C3A liver cells; test: Urea production in collected cell culture medium of the body cube; type: cell-based, human
[2] = test system: HepG2/C3A liver cells; type: cell-based
Description: After 24 h, the cell-loaded 3D scaffolds were aseptically transferred into the tissue chambers of the appropriate tissues chip. The chips were then placed on top of each other, so that the back of one tissue chamber closed the opening of the tissue chip below it. The tissue chip stack was then inserted into the holder. The two reservoirs of the cube were filled with 32.5 μL of EMEM (containing a volume fraction of 10% FBS) each, and the device was placed onto a rocker platform that tilted back and forth at an angle of 45°. The platform changed its tilt from 45° to −45° every 60 s continuously for 72 h. Culture medium was collected and replaced with fresh medium after 1 h, 16 h, 24 h, 40 h, 48 h, and 64 h. The total amount of blood surrogate (i.e. the amount of cell culture medium that we consider blood surrogate) inside the system consisted of 2×32.5 μL (medium in the reservoirs), plus 15 μL (medium inside the microfluidic channels that deliver medium to the tissue culture chambers).
To estimate cell death during co-culture, we measured AST concentrations in the cell culture medium recovered from the devices after 1 h, 16 h, 40 h and 64 h of co-culture. The AST activity was measured with an assay kit. Briefly, standard samples and medium samples were added to the 96 well plate. We then added 100 μL of working solution to each well and mixed both solutions by gently tapping the plate. The plate was then incubated inside a plate reader in the dark, at 37° C. […] We then selected the initial absorbance value inside the linear range and calculated the AST concentrations using the protocol given in the kit. The results are expressed as μg per million cells produced in relation to a 1 h baseline measurement.
Similar to the baseline experiments described above, we recovered cell cultures after 72 h of co-culture from the device.

[3] = test system: HepG2/C3A liver cells; test: Albumin synthesis by ELISA in cell culture medium of the body cube; type: cell-based, human; conditions: drugs added to the cube; compared to control without drug
[4] = test system: HepG2/C3A liver cells; test: Cell viability stain of liver cells after 72 h co-culture in the body cube; type: cell-based, human; conditions: 72 h four-tissue co-culture in body cube, 80 μL recirculating medium; compared to control without drug

Cc1c(C)c2c(c(C)c1O)CCC(C)(COc1ccc(CC3SC(=O)NC3=O)cc1)O2 (stereo not shown) [troglitazone]
metabolic activity of the tissues ([1]; body cube co-culture challenged with drug): decrease in metabolic activity | urea production ([1]; drugs added to the cube, compared to control without drug): decreased | cytosolic enzymes released vs cultures not exposed to drugs ([2]; after 40 h of exposure): significantly larger amounts | cytosolic enzyme concentration in the medium vs control cultures ([2]; after 48 h): similar | AST in the cell culture medium ([2]; body cube co-culture, compared to control without drug): significantly higher; also recorded: temporary increase of AST | albumin production [3]: not albumin production was decreased | cell viability in the liver chamber (viability stain, fluorescence images) [4]: significant liver damage; also recorded: expected cell death; also recorded: significantly lowered cell viability
